Each structure is given as a SMILES string. Residues, ends and D or L forms follow the SMILES beside them. *: point of attachment. FITC = O=C1OC2(c3ccc(O)cc3Oc3cc(O)ccc32)c2ccc(NC(=S)*)cc21; 5FAM = O=C1OC2(c3ccc(O)cc3Oc3cc(O)ccc32)c2ccc(C(=O)*)cc21; Biotin = O=C1N[C@H]2[C@H](CS[C@H]2CCCCC(=O)*)N1

Results on 10 molecules are retold here after article PMC5601071 (Frontiers in Pharmacology, 2017).

Tested on in the first series: not listed separately
Kind of series: In vitro degradation / half-life time in serum. Type of series: in vitro ADME, mouse. Particulars: spadin incubated with mouse serum; HPLC peaks identified by mass spectroscopy. Here is the method:
[…] Incubations were stopped by direct acidification (5 μl of 2.5 M HCl), loaded in C-18 sepack cartridges, lyophilized, resuspended in 20% acetonitrile before loading onto HPLC for analysis of PE degradation/stability. Elutions of HPLC products were carried out by means of a 50-min linear gradient of acetonitrile from 20 to 70% at a flow rate of 1 ml/min. The amount of the intact PE for each incubation time was expressed as the percent of the initial amount of spadin.
Take `CC[C@H](C)[C@H](NC(=O)[C@@H]1CCCN1C(=O)CNC(=O)[C@H](CO)NC(=O)[C@H](Cc1c[nH]c2ccccc12)NC(=O)[C@H](CCCNC(=N)N)NC(=O)[C@@H]1CCCN1C(=O)[C@H](CC(C)C)NC(=O)[C@@H]1CCCN1C(=O)[C@H](C)N)C(=O)NCC(=O)N[C@H](C(=O)N[C@@H](CO)C(=O)N[C@@H](Cc1c[nH]c2ccccc12)C(=O)NCC(=O)N[C@@H](CC(C)C)C(=O)O)C(C)C` [PE 12-27] (H-APLPRWSGPIGVSWGL-OH): the “time of maximal appearance of degradation peak in serum” value came to 30 min.
Same read-out and setting: under `CC[C@H](C)[C@H](NC(=O)[C@@H]1CCCN1C(=O)CNC(=O)[C@H](CO)NC(=O)[C@H](Cc1c[nH]c2ccccc12)NC(=O)[C@H](CCCNC(=N)N)NC(=O)[C@@H]1CCCN1C(=O)[C@@H](N)CC(C)C)C(=O)NCC(=O)N[C@H](C(=O)N[C@@H](CO)C(=O)N[C@@H](Cc1c[nH]c2ccccc12)C(=O)O)C(C)C` [PE 14-25] (H-LPRWSGPIGVSW-OH) stands 15 min.

A further series concerns the target T1, TREK-1 channel (hTREK-1/HEK cells) (Homo sapiens, UniProt O95069).
T1 construct: expressed in transfected cells
T1 sequence (O95069 1-426): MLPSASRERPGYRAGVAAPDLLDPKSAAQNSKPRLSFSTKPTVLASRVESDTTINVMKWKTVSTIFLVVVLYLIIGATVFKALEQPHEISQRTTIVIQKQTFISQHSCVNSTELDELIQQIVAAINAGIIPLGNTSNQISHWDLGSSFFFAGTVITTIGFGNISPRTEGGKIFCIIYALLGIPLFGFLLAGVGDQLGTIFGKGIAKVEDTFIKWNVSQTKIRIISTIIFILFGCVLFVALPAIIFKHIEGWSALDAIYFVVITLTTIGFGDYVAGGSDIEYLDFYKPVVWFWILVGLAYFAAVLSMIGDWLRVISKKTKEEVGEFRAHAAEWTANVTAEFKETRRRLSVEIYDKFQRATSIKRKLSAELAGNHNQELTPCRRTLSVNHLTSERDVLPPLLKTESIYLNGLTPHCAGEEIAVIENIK
As to the kind of experiment: TREK-1 current inhibition, whole-cell patch-clamp on hTREK-1/HEK cell line. In kind it is cell-based. Particulars: HEK293, peptide 100 nM; TREK-1 first activated with 10 μM arachidonic acid (AA); current density at 0 mV; hTREK-1/HEK cells; mean ± SEM, n = cells; read-out: % of TREK-1 inhibition. Here is the method:
The human TREK-1/HEK cell line (Moha ou Maati et al., [2011]) and the native HEK293 cell line were maintained in Dulbecco's Modified Eagle's Medium (DMEM) supplemented with 10% (v/v) heat-inactivated fetal bovine serum, 1% (v/v) penicillin-streptomycin, 1% Glutamax. For the hTREK-1/HEK cells, 0.5 mg/ml G418 were added to the medium.
Cells were incubated in a humidified atmosphere containing 5% CO2. For electrophysiological measurements, cells were plated at a density of 20,000 cells per 35 mm dish.
Cells from the hTREK-1/HEK cell line were seeded at a density of 20,000 cells/35 mm dish. Electrophysiological recordings were performed 24–48 h after plating using the whole-cell configuration of patch-clamp technique. TREK-1 currents (ITREK−1) were recorded using RK400 patch-clamp amplifier (Axon Instrument, USA). They were low-pass filtered at 3 kHz and digitized at 10 kHz using a 12-bit analog-to-digital converter digidata (1322 series, Axon Instrument, USA). ITREK−1amplitudes were expressed as current densities [current amplitude (pA)/membrane capacitance (pF)]. The results were expressed as mean ± SEM (standard error of the mean).
Cells were continuously perfused using an external bath solution containing in mM: 150 NaCl, 5 KCl, 3 MgCl2, 1 CaCl2, and 10 HEPES. The bath solution was initially adjusted to pH 7.4 with NaOH. The intra-pipette solution contained in mM: 155 KCl, 3 MgCl2, 5 EGTA, and 10 HEPES adjusted to pH 7.2 with KOH. In order to measure ITREK−1, a cocktail of potassium channel blockers was added to the bath solution. This cocktail contained: 3 mM 4-AP (4-aminopyridine), 10 mM TEA (tetraethylammonium), 10 μM Glibenclamide, 100 nM Apamin, and 50 nM Charybdotoxin. Data acquisition was carried out using a computer (Dell Pentium) with pClamp software (Axon Instrument, USA). Whole-cell currents were generated by running a pulse or ramp protocol every 5 s from −100 to +60 mV with a holding potential maintained at −80 mV. To evaluate the inhibitory effect on TREK-1 channels of shortened spadin analogs compared with spadin, cells were first activated by 10 μM arachidonic acid (AA). Dose-response curves were realized to compare spadin-analog effects with spadin using Origin 8.6 (Northampton, MA, USA).
Patch-clamp recording data were analyzed using Clampfit (Molecular Devices, USA). I = f(V) curves were obtained from −100 to +60 mV ramp. Data were presented as mean ± SEM.
`CC(C)C[C@H](NC(=O)CNC(=O)[C@H](Cc1c[nH]c2ccccc12)NC(=O)[C@H](CO)NC(=O)[C@@H](NC(=O)CNC(=O)c1ccc2c(c1)C(=O)OC21c2ccc(O)cc2Oc2cc(O)ccc21)C(C)C)C(=O)N[C@@H](CCCNC(=N)N)C(=O)O` [5'FAM-PE 22-28] (5FAM-GVSWGLR-OH): the inhibition at 0.1 µM was 6.63 ± 7.07%.
The same measure, in the same setting: under `CC(C)C[C@H](NC(=O)CNC(=O)[C@H](Cc1c[nH]c2ccccc12)NC(=O)[C@H](CO)NC(=O)[C@@H](NC(=O)[C@H](C)NC(=O)CCCC[C@@H]1SC[C@@H]2NC(=O)N[C@@H]21)C(C)C)C(=O)N[C@@H](CCCNC(=N)N)C(=O)O` [Biotinylated G/A-PE 22-28] (Biotin-AVSWGLR-OH) stands 46.1 ± 7.74%; under `CC(C)C[C@H](NC(=O)CNC(=O)[C@H](Cc1c[nH]c2ccccc12)NC(=O)[C@H](CO)NC(=O)[C@@H](NC(=O)CNC(=O)CCCC[C@@H]1SC[C@@H]2NC(=O)N[C@@H]21)C(C)C)C(=O)N[C@@H](CCCNC(=N)N)C(=O)O` [Biotinylated-PE 22-28] (Biotin-GVSWGLR-OH), 53 ± 6.42%.
On the same count and under the same terms, under `CC[C@H](C)[C@H](NC(=O)[C@@H]1CCCN1C(=O)CCCC[C@@H]1SC[C@@H]2NC(=O)N[C@@H]21)C(=O)NCC(=O)N[C@H](C(=O)N[C@@H](CO)C(=O)N[C@@H](Cc1c[nH]c2ccccc12)C(=O)NCC(=O)N[C@@H](CC(C)C)C(=O)N[C@@H](CCCNC(=N)N)C(=O)O)C(C)C` [Biotinylated-PI-PE 22-28] (Biotin-PIGVSWGLR-OH) stands 49.1 ± 7.45%.
Still for that read-out and setting: the result for `CC(C)C[C@H](NC(=O)CNC(=O)[C@H](Cc1c[nH]c2ccccc12)NC(=O)[C@H](CO)NC(=O)[C@@H](NC(=O)CNC(=S)Nc1ccc2c(c1)C(=O)OC21c2ccc(O)cc2Oc2cc(O)ccc21)C(C)C)C(=O)N[C@@H](CCCNC(=N)N)C(=O)O` [FITC-PE 22-28] ({FITC}-GVSWGLR-OH) reads 22.1 ± 12.6%; that for `CC(C)C[C@H](NC(=O)CNC(=O)[C@H](Cc1c[nH]c2ccccc12)NC(=O)[C@H](CO)NC(=O)[C@@H](NC(=O)[C@H](C)N)C(C)C)C(=O)N[C@@H](CCCNC(=N)N)C(=O)O` [G/A-PE 22-28] (H-AVSWGLR-OH), 50.6 ± 7.93%.
For `CC[C@H](C)[C@H](NC(=O)[C@@H]1CCCN1C(=O)CNC(=O)[C@H](CO)NC(=O)[C@H](Cc1c[nH]c2ccccc12)NC(=O)[C@H](CCCNC(=N)N)NC(=O)[C@@H]1CCCN1C(=O)[C@H](CC(C)C)NC(=O)[C@@H]1CCCN1C(=O)[C@H](C)N)C(=O)NCC(=O)N[C@H](C(=O)N[C@@H](CO)C(=O)N[C@@H](Cc1c[nH]c2ccccc12)C(=O)NCC(=O)N[C@@H](CC(C)C)C(=O)O)C(C)C` [PE 12-27] (H-APLPRWSGPIGVSWGL-OH), the inhibition at 0.1 µM was 28.4 ± 9.9%.
On the same count and under the same terms, the result for `CC[C@H](C)[C@H](NC(=O)[C@@H]1CCCN1C(=O)CNC(=O)[C@H](CO)NC(=O)[C@H](Cc1c[nH]c2ccccc12)NC(=O)[C@H](CCCNC(=N)N)NC(=O)[C@@H]1CCCN1C(=O)[C@@H](N)CC(C)C)C(=O)NCC(=O)N[C@H](C(=O)N[C@@H](CO)C(=O)N[C@@H](Cc1c[nH]c2ccccc12)C(=O)O)C(C)C` [PE 14-25] (H-LPRWSGPIGVSW-OH) reads -14.7 ± 10.6%.
Same read-out and setting: under `CC(C)[C@H](NC(=O)CN)C(=O)N[C@@H](CO)C(=O)N[C@@H](Cc1c[nH]c2ccccc12)C(=O)O` [PE 22-25] (H-GVSW-OH) stands 36 ± 17.5%; under `CC(C)C[C@H](NC(=O)CNC(=O)[C@H](Cc1c[nH]c2ccccc12)NC(=O)[C@H](CO)NC(=O)[C@@H](NC(=O)CN)C(C)C)C(=O)O` [PE 22-27] (H-GVSWGL-OH), 25.7 ± 20%.

Still in this series, the particulars now being: peptide 100 nM after 10 μM AA; n = 8, p = 0.09.
As for `CC[C@H](C)[C@H](NC(=O)[C@@H]1CCCN1C(=O)CNC(=O)[C@H](CO)NC(=O)[C@H](Cc1c[nH]c2ccccc12)NC(=O)[C@H](CCCNC(=N)N)NC(=O)[C@@H]1CCCN1C(=O)[C@@H](N)CC(C)C)C(=O)NCC(=O)N[C@H](C(=O)N[C@@H](CO)C(=O)N[C@@H](Cc1c[nH]c2ccccc12)C(=O)O)C(C)C` [PE 14-25] (H-LPRWSGPIGVSW-OH), the “current density measured at 0 mV compared with AA activity alone (100%)” value is 114.7 ± 10.6%.
